ChEMBL document CHEMBL1909493, “Synthesis and biological evaluation of novel analogues of the pan class I phosphatidylinositol 3-kinase (PI3K) inhibitor 2-(difluoromethyl)-1-[4,6-di(4-morpholinyl)-1,3,5-triazin-2-yl]-1H-benzimidazole (ZSTK474)” (J Med Chem, 2011)
≈ marks a conversion by molar mass, not a printed value.

Tests used:
[1] = Inhibition of bovine recombinant PI3K p110delta expressed in Sf21 insect cells using phosphatidylinositol as substrate after 1 hr by phosphoimaging; parameters: species or system Bos taurus
[2] = cells; conditions: Homo sapiens, HCT-116
[3] = target: T1, Phosphatidylinositol 4,5-bisphosphate 3-kinase catalytic subunit beta isoform (Homo sapiens, UniProt P42338); test: Inhibition of human recombinant PI3K p110beta expressed in Sf21 insect cells using phosphatidylinositol as substrate after 1 hr by phosphoimaging
T1 sequence (P42338 whole entry, canonical isoform): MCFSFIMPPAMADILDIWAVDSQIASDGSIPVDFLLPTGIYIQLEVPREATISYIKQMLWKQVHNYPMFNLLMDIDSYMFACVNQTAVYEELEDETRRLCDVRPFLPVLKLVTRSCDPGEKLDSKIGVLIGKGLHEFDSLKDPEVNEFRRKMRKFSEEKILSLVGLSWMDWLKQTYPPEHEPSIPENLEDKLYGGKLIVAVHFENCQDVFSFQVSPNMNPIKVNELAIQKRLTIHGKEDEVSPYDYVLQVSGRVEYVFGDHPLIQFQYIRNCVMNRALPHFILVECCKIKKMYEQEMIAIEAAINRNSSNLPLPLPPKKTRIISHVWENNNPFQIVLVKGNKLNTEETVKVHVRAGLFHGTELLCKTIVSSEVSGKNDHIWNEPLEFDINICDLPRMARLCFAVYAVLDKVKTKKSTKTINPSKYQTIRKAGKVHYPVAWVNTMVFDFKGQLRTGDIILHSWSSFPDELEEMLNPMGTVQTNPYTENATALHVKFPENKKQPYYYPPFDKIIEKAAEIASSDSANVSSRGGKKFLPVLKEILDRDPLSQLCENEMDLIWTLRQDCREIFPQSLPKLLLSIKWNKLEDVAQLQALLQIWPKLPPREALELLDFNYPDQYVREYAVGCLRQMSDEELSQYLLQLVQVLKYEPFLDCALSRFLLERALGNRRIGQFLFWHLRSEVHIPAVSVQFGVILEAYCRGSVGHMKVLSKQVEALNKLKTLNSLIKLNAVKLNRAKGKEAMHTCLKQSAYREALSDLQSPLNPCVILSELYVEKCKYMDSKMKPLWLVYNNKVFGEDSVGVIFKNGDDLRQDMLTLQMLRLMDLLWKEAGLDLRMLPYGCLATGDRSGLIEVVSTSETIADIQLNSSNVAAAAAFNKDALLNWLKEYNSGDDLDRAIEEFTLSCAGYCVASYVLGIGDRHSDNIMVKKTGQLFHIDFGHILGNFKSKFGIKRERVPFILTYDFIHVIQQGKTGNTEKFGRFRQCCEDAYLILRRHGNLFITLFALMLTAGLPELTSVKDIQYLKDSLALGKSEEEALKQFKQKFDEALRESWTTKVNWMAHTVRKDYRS

[4] = target: T2, Phosphatidylinositol 4,5-bisphosphate 3-kinase catalytic subunit delta isoform (Homo sapiens, UniProt O00329); test: Inhibition of human His-tagged PI3K p110delta after 2 hrs by HTRF assay
T2 sequence (O00329 whole entry): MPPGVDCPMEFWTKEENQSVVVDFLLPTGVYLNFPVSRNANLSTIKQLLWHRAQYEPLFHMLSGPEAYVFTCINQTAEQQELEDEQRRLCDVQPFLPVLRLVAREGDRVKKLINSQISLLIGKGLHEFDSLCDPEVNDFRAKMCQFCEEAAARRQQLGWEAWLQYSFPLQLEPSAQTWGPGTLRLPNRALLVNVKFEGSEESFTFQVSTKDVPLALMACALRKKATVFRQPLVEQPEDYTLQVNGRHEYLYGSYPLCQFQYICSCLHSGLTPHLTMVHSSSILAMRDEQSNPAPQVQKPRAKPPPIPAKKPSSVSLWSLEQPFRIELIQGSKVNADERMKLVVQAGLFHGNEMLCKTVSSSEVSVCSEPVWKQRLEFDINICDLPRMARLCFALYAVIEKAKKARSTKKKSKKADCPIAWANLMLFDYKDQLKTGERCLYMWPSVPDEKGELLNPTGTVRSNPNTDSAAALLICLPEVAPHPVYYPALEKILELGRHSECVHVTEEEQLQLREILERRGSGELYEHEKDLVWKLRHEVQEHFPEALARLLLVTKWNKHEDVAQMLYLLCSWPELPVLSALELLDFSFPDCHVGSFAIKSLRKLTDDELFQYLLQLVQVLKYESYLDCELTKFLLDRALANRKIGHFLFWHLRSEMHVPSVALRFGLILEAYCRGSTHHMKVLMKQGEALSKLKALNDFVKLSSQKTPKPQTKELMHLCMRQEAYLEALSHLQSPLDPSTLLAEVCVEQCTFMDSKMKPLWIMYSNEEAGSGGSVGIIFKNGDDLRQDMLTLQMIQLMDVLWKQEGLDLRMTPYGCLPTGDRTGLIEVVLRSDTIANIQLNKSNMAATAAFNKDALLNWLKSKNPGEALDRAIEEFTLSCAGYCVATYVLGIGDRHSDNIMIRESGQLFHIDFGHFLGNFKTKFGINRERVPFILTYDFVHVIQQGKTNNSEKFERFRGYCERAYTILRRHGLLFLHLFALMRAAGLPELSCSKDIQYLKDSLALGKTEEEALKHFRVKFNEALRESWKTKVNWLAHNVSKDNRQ

[5] = Cmax in CD1 mouse at 10 mg/kg, ip administered as single dose by LC-MS/MS analysis; format: ADME, organism-based; parameters: dose 10 mg/kg, route intraperitoneal; conditions: in vivo
[6] = target: T1, Phosphatidylinositol 4,5-bisphosphate 3-kinase catalytic subunit beta isoform; test: Inhibition of human His-tagged PI3K p110beta after 2 hrs by HTRF assay
[7] = Half life in CD1 mouse at 10 mg/kg, ip administered as single dose by LC-MS/MS analysis; format: ADME, organism-based; parameters: dose 10 mg/kg, route intraperitoneal; conditions: in vivo
[8] = cells; conditions: Homo sapiens, NZB5
[9] = target: Phosphatidylinositol 4,5-bisphosphate 3-kinase catalytic subunit alpha isoform (Mus musculus, UniProt P42337); test: Inhibition of mouse recombinant PI3K p110alpha expressed in Sf21 insect cells using phosphatidylinositol as substrate after 1 hr by phosphoimaging
Sequence of Phosphatidylinositol 4,5-bisphosphate 3-kinase catalytic subunit alpha isoform (Mus musculus, UniProt P42337) (P42337 whole entry, the tested form may be a part, canonical isoform): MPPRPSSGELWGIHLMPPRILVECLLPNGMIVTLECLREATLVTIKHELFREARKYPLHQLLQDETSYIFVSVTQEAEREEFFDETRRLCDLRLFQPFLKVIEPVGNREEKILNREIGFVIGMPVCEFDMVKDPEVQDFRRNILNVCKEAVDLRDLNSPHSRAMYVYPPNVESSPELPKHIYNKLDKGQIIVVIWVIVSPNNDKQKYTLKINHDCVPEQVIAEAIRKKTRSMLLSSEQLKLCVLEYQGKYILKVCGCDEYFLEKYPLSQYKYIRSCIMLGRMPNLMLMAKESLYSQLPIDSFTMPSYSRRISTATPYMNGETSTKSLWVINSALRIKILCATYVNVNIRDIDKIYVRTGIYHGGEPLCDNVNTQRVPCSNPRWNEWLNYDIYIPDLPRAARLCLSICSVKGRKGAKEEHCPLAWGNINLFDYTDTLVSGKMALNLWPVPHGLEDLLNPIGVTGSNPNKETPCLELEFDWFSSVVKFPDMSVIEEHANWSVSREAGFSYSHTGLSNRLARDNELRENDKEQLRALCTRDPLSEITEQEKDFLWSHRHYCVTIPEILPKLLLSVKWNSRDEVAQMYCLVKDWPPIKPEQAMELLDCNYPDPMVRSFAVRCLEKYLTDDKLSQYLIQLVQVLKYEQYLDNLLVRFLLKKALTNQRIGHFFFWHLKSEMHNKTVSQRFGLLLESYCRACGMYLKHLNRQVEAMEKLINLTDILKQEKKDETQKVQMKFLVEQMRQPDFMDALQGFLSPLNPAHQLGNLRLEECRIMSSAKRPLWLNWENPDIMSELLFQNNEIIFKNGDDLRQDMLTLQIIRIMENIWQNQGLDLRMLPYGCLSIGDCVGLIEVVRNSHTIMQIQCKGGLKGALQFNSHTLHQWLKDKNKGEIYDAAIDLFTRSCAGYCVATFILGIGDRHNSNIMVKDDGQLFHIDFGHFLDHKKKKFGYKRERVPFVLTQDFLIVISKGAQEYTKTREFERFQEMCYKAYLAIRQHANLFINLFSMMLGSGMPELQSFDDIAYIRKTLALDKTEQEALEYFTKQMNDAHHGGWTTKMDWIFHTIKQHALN

[10] = target: Phosphatidylinositol 4,5-bisphosphate 3-kinase catalytic subunit alpha isoform (Homo sapiens, UniProt P42336, E545K); test: Inhibition of human PI3K p110alpha helical domain E545K mutant after 2 hrs by HTRF assay
Sequence of Phosphatidylinositol 4,5-bisphosphate 3-kinase catalytic subunit alpha isoform (Homo sapiens, UniProt P42336, E545K) (P42336 whole entry E545K, the tested form may be a part, canonical isoform): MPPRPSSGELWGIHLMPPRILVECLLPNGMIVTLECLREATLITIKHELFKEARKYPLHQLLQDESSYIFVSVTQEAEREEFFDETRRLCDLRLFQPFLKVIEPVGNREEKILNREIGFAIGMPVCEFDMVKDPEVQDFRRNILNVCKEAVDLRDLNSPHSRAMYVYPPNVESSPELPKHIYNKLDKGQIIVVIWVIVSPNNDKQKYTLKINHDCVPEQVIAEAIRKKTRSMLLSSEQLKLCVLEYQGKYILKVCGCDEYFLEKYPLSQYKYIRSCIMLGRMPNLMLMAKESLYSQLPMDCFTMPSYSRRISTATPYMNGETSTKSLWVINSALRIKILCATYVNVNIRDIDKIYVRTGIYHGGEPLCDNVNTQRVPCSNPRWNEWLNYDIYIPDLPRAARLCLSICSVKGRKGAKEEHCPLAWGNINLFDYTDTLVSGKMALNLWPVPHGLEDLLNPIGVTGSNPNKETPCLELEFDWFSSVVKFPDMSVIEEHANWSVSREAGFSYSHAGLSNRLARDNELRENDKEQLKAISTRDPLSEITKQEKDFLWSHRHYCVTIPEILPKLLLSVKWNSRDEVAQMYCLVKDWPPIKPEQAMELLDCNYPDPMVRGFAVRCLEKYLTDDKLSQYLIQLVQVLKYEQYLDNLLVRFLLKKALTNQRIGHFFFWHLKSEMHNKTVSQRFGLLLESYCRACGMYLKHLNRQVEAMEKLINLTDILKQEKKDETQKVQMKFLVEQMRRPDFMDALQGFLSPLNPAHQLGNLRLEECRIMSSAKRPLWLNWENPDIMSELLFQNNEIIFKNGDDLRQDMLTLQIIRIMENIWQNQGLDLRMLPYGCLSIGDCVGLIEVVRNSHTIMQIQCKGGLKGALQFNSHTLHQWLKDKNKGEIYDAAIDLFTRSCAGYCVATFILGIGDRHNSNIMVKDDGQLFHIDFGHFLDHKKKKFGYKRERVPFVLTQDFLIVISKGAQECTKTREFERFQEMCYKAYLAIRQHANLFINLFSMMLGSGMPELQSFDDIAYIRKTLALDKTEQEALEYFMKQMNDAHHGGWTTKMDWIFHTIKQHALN

[11] = Tmax in CD1 mouse at 10 mg/kg, ip administered as single dose by LC-MS/MS analysis; format: ADME, organism-based; parameters: dose 10 mg/kg, route intraperitoneal; conditions: in vivo
[12] = cells; conditions: Homo sapiens, HCT-116; remark: listed apart in the source
[13] = target: Phosphatidylinositol 4,5-bisphosphate 3-kinase catalytic subunit gamma isoform (Homo sapiens, UniProt P48736); test: Inhibition of human His-tagged PI3K p110gamma after 2 hrs by HTRF assay
Sequence of Phosphatidylinositol 4,5-bisphosphate 3-kinase catalytic subunit gamma isoform (P48736 whole entry, canonical isoform): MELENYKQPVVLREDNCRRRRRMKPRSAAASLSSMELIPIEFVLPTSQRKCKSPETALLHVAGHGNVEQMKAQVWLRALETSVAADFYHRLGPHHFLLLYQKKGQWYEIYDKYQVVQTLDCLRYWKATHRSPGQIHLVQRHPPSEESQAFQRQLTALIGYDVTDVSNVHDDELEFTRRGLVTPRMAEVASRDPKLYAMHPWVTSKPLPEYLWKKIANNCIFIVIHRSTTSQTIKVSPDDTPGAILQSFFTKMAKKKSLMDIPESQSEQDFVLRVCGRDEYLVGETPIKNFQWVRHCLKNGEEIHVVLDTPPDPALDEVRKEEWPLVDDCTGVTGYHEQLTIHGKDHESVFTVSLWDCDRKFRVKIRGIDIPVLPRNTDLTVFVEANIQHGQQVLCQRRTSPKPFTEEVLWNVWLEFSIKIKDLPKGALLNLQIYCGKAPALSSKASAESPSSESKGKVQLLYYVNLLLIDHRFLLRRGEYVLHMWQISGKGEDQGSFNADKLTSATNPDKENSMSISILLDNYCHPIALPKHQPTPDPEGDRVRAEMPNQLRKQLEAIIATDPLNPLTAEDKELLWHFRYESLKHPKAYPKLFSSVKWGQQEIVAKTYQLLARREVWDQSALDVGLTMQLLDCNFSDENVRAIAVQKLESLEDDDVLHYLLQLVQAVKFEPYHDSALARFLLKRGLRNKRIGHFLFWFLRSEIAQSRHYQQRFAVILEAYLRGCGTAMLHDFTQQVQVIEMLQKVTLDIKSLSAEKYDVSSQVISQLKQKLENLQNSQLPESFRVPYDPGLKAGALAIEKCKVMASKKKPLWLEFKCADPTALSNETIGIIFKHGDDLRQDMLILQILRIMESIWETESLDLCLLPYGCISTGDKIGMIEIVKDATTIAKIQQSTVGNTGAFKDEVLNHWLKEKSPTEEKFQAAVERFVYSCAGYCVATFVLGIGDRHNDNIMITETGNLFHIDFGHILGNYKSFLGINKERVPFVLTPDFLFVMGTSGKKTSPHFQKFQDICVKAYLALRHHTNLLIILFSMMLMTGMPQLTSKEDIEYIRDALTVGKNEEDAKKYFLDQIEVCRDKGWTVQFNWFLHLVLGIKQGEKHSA

[14] = cells; conditions: Homo sapiens, NZOV9
[15] = target: T3, Phosphatidylinositol 4,5-bisphosphate 3-kinase catalytic subunit alpha isoform (Homo sapiens, UniProt P42336); test: Inhibition of PIK3CA-mediated cell signaling in PTEN-deficient human U87MG cells assessed as inhibition of insulin-induced pAkt/PKB phosphorylation at Thr308 treated for 15 mins before insulin challenge measured after 5 mins by immunoblotting; format: cell-based, U-87MG ATCC
T3 sequence (P42336 whole entry, canonical isoform): as the sequence (P42336 whole entry E545K, the tested form may be a part, canonical isoform) above, with K545E counted along it

[16] = target: T3, Phosphatidylinositol 4,5-bisphosphate 3-kinase catalytic subunit alpha isoform; test: Inhibition of PIK3CA-mediated cell signaling in PTEN-deficient human U87MG cells assessed as inhibition of insulin-induced pAkt/PKB phosphorylation at Ser473 treated for 15 mins before insulin challenge measured after 5 mins by immunoblotting; format: cell-based, U-87MG ATCC
[17] = Aqueous solubility of the compound in water after 15 mins by HPLC analysis; conditions: aqueous medium
[18] = target: T3, Phosphatidylinositol 4,5-bisphosphate 3-kinase catalytic subunit alpha isoform; test: Inhibition of human His-tagged PI3K p110alpha after 2 hrs by HTRF assay
[19] = AUC (infinity) in CD1 mouse at 10 mg/kg, ip administered as single dose by LC-MS/MS analysis; format: ADME, organism-based; parameters: time infinity, dose 10 mg/kg, route intraperitoneal; conditions: plasma
[20] = target: Phosphatidylinositol 4,5-bisphosphate 3-kinase catalytic subunit alpha isoform (Homo sapiens, UniProt P42336, H1047R); test: Inhibition of human His-tagged PI3K p110alpha H1047R mutant after 2 hrs by HTRF assay
Sequence of Phosphatidylinositol 4,5-bisphosphate 3-kinase catalytic subunit alpha isoform (Homo sapiens, UniProt P42336, H1047R) (P42336 whole entry H1047R, canonical isoform): as the sequence (P42336 whole entry E545K, the tested form may be a part, canonical isoform) above, with K545E, H1047R counted along it

[21] = tested on: Mus musculus; test: Toxicity in PTEN-deficient human U87MG cells xenografted Rag1-/- mouse assessed as delayed body weight loss at 50 mg/kg, ip qd for 10 days; format: organism-based, U-87MG ATCC; parameters: dose 50 mg/kg, route intraperitoneal; conditions: in vivo, 240 h
[22] = Antitumor activity in PTEN-deficient human U87MG xenografted in Rag1-/- mouse assessed as inhibition of tumor growth at 15 mg/kg, ip qd for 10 days measured after 10 days (reference value: 18.5 +/- 3.4%); format: functional, U-87MG ATCC; conditions: U-87 MG, 240 h, route intraperitoneal, read-out: GI
[23] = tested on: Mus musculus; test: Toxicity in PTEN-deficient human U87MG cells xenografted Rag1-/- mouse assessed as body weight loss at 15 mg/kg, ip qd for 10 days; format: organism-based, U-87MG ATCC; parameters: dose 15 mg/kg, route intraperitoneal; conditions: in vivo, 240 h
[24] = Antitumor activity in PTEN-deficient human U87MG xenografted in Rag1-/- mouse assessed as inhibition of tumor growth at 40 mg/kg, ip qd for 10 days measured after 10 days (reference value: 18.5 +/- 3.4%); format: functional, U-87MG ATCC; conditions: U-87 MG, 240 h, read-out: GI, route intraperitoneal
[25] = tested on: Mus musculus; test: Toxicity in PTEN-deficient human U87MG cells xenografted Rag1-/- mouse assessed as body weight loss at 40 mg/kg, ip qd for 10 days; format: organism-based, U-87MG ATCC; parameters: dose 40 mg/kg, route intraperitoneal; conditions: in vivo, 240 h

| IC50 [2] | IC50 [3] | IC50 [4] | Cmax [5] | IC50 [6] | half-life [7] | IC50 [8] | IC50 [9] | IC50 [10] | Tmax [11] | IC50 [12] | IC50 [13] | IC50 [14] | IC50 [15] | IC50 [16] | solubility at […] [17] | IC50 [18] | AUC(0-inf) [19] | IC50 [20] | Compound | IC50 [1] | further results |
| --- | --- | --- | --- | --- | --- | --- | --- | --- | --- | --- | --- | --- | --- | --- | --- | --- | --- | --- | --- | --- | --- |
| 0.18 nM | 0.68 nM | 0.65 nM | 628 nM | 3.5 nM | 1.55 h | 30 nM | 0.9 nM | 0.12 nM | 0.25 h | 8.3 nM | 6 nM | 10 nM | 2.9 nM | 1.3 nM | 0.32 µg/mL (≈ 0.738 µM) | 0.53 nM | 1.03 µM·h | 0.83 nM | Oc1cccc2c1nc(C(F)F)n2-c1nc(N2CCOCC2)nc(N2CCOCC2)n1 | 0.27 nM |  |
| 381 nM | 56 nM | 34 nM |  | > 2500 nM |  | 47 nM | 26 nM | 3 nM |  | 415 nM | 56 nM | 28 nM | 418 nM | 427 nM |  | 4.7 nM |  | 8.5 nM | FC(F)Oc1cccc2c1nc(C(F)F)n2-c1nc(N2CCOCC2)nc(N2CCOCC2)n1 | 7.4 nM |  |
| 515 nM | 6.7 nM | 2 nM |  | 44 nM |  | 334 nM | 37 nM | 49 nM |  | 507 nM | 52 nM | 130 nM | 378 nM | 583 nM |  | 70 nM |  | 158 nM | COc1ccc2c(nc(C(F)F)n2-c2nc(N3CCOCC3)nc(N3CCOCC3)n2)c1O | 0.3 nM |  |
|  |  |  | 3450 nM |  | 1.48 h |  |  |  | 0.083 h | 12 nM |  |  |  |  |  |  | 5.22 µM·h |  | COc1cc(N)cc2c1nc(C(F)F)n2-c1nc(N2CCOCC2)nc(N2CCOCC2)n1 |  | Activity [21]: Toxic |
|  |  |  |  |  |  |  |  |  |  |  |  |  |  |  |  |  |  |  | Cn1c(=O)n(-c2ccc(C(C)(C)C#N)cc2)c2c3cc(-c4cnc5ccccc5c4)ccc3ncc21 [DACTOLISIB] |  | inhibition in vivo at 15 mg/kg [22]: 31.5%; Activity [23]: Non-toxic |
| 78 nM |  |  | 2360 nM |  | 1.52 h |  |  |  | 2 h | 97 nM |  |  |  |  | 0.61 µg/mL (≈ 1.46 µM) |  | 9.66 µM·h |  | FC(F)c1nc2ccccc2n1-c1nc(N2CCOCC2)nc(N2CCOCC2)n1 [ZSTK-474] |  | inhibition in vivo at 40 mg/kg [24]: 65.3%; Activity [25]: Non-toxic |
